Reference: ChEMBL document CHEMBL3085700 (J Med Chem, 2013)
Activity calls are given as the source filed them. The rule behind the calls is not given here.

How the values were obtained:
[1] = molecular target: T1, Fatty-acid amide hydrolase 1 (Homo sapiens, UniProt O00519); experiment: Inhibition of human recombinant FAAH overexpressed in African green monkey COS7 cells using [3H]-anandamide as substrate preincubated for 10 mins before substrate addition measured after 10 mins by liquid scintillation counting analysis; assay type: cell-based, COS-7
T1 sequence (O00519 whole entry): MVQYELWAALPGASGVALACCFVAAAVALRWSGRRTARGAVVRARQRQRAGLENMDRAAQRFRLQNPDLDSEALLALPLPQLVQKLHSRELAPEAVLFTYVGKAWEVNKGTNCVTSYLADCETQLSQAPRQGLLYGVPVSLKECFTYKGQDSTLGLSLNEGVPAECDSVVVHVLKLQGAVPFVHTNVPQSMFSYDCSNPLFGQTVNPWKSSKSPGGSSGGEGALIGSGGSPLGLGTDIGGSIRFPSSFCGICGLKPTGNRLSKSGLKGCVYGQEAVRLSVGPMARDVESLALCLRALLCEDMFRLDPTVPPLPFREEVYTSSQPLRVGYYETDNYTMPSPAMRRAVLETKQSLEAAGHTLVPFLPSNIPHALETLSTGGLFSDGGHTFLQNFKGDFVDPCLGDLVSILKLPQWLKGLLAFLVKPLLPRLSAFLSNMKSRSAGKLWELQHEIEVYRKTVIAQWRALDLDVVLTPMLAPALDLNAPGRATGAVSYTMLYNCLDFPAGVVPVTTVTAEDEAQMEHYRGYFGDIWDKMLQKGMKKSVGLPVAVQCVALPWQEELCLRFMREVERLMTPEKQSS

[2] = molecular target: T2, Fatty-acid amide hydrolase 1 (Homo sapiens) (UniProt O00519); experiment: Reversible inhibition of human recombinant FAAH overexpressed in African green monkey COS7 cells using […] as substrate assessed as recovery of enzyme activity at 20 x IC50 preincubated for 60 mins followed by 500 fold dilution measured after 10 mins by HPLC analysis; assay type: cell-based; conditions: COS-7
T2 sequence (whole entry): T1 sequence (O00519 whole entry)

[3] = molecular target: T2, Fatty-acid amide hydrolase 1 (Homo sapiens); experiment: Inhibition of human recombinant FAAH overexpressed in African green monkey COS7 cells using [3H]-anandamide as substrate at 300 uM preincubated for 10 to 60 mins by liquid scintillation counting analysis; assay type: cell-based; conditions: COS-7
[4] = molecular target: T3, Fatty-acid amide hydrolase 1 (Mus musculus) (UniProt O08914); conditions: Brain, Membrane, 10 uM
T3 sequence (whole entry): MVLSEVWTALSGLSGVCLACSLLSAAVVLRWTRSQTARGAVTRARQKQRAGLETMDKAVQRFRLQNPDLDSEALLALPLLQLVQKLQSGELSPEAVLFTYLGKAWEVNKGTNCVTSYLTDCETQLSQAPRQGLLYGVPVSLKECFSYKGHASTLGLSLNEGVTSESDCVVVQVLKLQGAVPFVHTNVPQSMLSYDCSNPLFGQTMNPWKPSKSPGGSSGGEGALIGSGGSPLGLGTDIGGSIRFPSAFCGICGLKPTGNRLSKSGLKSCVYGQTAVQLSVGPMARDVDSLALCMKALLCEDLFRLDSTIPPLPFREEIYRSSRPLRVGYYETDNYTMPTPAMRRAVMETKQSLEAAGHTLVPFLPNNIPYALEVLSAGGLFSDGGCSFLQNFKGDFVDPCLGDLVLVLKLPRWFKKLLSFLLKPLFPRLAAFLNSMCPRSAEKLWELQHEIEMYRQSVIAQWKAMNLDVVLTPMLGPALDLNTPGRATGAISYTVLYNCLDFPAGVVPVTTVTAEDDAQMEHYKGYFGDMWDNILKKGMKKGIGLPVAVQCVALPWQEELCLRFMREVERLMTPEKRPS
Description: Inhibition of TAMRA-FP-labeled FAAH in mouse brain membrane at 10 uM after 1 hr by fluorescent gel scanning assay

[5] = molecular target: T2, Fatty-acid amide hydrolase 1 (Homo sapiens); experiment: Inhibition of human recombinant FAAH overexpressed in African green monkey COS7 cells using [3H]-anandamide as substrate at 30 uM preincubated for 10 to 60 mins by liquid scintillation counting analysis; conditions: COS-7

SMILES	IC50 ([1]; read-out: IC50) [nM]	IC50 ([1]; read-out: pIC50 (converted)) [nM]	inhibition [2]	inhibition [3]	inhibition [4]	inhibition [5]
O=C(Nc1ccccc1)N1CCC(Cc2ccc3ccccc3n2)CC1	320	324	inactive	Active	–	–
O=C(Oc1ccc([N+](=O)[O-])cc1)N1CCN(Cc2cccc(Oc3ccccc3)c2)CC1	–	–	–	–	Active	–
CCCCCCCCCCCC(=O)c1nc2ncccc2o1	17	16.6	Active	–	–	inactive
